Assay results: US8664387B2, “Pyridoquinazolinone M1 receptor positive allosteric modulators” (Merck Sharp & Dohme Corp., priority 2009, dated 2014)

Target: T1, acetylcholine muscarinic M1 receptor (Homo sapiens, UniProt P11229)
T1 construct: expressed in transfected cells; host or cells: CHOnfat cells (CHOnfat/hM1; geneticin selection)
T1 sequence (P11229 1-460): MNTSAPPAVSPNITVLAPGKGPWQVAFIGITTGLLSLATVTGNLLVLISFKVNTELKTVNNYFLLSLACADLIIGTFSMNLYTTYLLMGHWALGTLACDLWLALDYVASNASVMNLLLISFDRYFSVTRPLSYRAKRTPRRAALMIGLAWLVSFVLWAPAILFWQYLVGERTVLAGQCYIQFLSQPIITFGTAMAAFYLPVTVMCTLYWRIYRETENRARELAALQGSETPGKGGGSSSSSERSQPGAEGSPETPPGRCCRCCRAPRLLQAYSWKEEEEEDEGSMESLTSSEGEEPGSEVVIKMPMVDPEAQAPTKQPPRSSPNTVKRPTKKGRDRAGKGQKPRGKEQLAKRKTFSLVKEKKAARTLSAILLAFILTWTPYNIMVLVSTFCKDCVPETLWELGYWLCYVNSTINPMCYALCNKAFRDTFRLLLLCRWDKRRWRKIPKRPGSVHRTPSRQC
Experiment: muscarinic FLIPR calcium assay, M1 positive allosteric modulation
Format: cell-based
Details: CHOnfat/hM1 cells, FLIPR intracellular Ca2+, 4 min preincubation, then EC20 acetylcholine (3 nM final); read-out: IP Value (inflection point)
Protocol: The assay studies the effect of one or several concentrations of test compounds on basal or acetylcholine-stimulated Ca^2+ levels using FLIPR.
Compounds are prepared and subjected to a preincubation period of 4 min. Thereafter, a single EC20 concentration of acetylcholine is added to each well (3 nM final). The intracellular Ca^2+ level of each sample is measured and compared to an acetylcholine control to determine any modulatory activity.
Cells: CHOnfat/hM1, hM2, hM3 or hM4 cells are plated 24 hr before the assay at a density of 18,000 cells/well (100 μL) in a 384 well plate. CHOnfat/hM1 and CHOnfat/hM3 Growth Medium: 90% DMEM (Hi Glucose); 10% HI FBS; 2 mM L-glutamine; 0.1 mM NEAA; Pen-Strep; and 1 mg/ml Geneticin, are added. For M2Gqi5CHOnfat and M4Gqi5CHOnfat cells, an additional 600 ug/ml hygromycin is added.
Equipment: 384 well plate, 120 μL addition plate; 96-well Whatman 2 ml Uniplate Incubator, 37° C., 5% CO2; Skatron EMBLA-384 Plate Washer; Multimek Pipetting System; Genesis Freedom 200 System; Mosquito System; Temo Nanoliter Pipetting System; and FLIPR^384 Fluorometric Imaging Plate Reader System are used.
Buffers. Assay Buffer: Hanks Balanced Salt Solution, with 20 mM Hepes, 2.5 mM Probenecid (Sigma P-8761) first dissolved in 1 N NaOH, 1% Bovine Serum Albumin (Sigma A-9647). Dye Loading Buffer: Assay Buffer plus 1% Fetal Bovine Serum and Fluo-4AM/Pluronic Acid Mixture. 2 mM Fluo-4AM ester stock in DMSO (Molecular Probes F-14202) Concentration of 2 μM in buffer for a final concentration of 1 μM in Assay. 20% Pluronic Acid Solution stock, with concentration of 0.04% in Buffer, 0.02% in Assay.
65 μL of 2 mM Fluo-4AM are mixed with 130 μL of 20% Pluronic Acid. The resulting solution and 650 μL FBS is added to the assay buffer for a total volume of 65 mL. Positive Controls: 4-Br-A23187: 10 mM in DMSO; final concentration 10 μM. Acetylcholine: 10 mM in water, working stock at both 20 μM and 30 µM in assay buffer, final concentration of 10 μM. This is used to check the maximum stimulation of the CHOK1/hM1 cells. 20 μM (2×) acetylcholine is added in the preincubation part of the assay, and the 30 μM (3×) stock is added in the second part. (EC20)Acetylcholine: 10 mM in water, working stock of 9 nM (3×), and final concentration in assay is 3 nM. This is used after the preincubation with test compounds. Addition of the EC20 Acetylcholine to each well with a test compound will ascertain any modulator activity. 24 wells contain 3 nM Acetylcholine alone as a control.
Determining Activity of Putative Compounds: • Screening Plate: Compounds are titrated in 96-well plates (columns 2-11), 100% DMSO, started at a concentration of 15 mM (150× stock concentration), and 3-fold serial dilutions using Genesis Freedom200 System. Four 96-well plates are combined into a 384-well plate using Mosquito Nanoliter Pipetting System by transferring 1 μl of serial diluted compounds to each well, and 1 mM acetylcholine (100× stock concentration) were added as a control. Using Temo, 49 μl assay buffer is added to each well of the 384-well plate right before assay.
In a 96-well Whatman 2 ml Uniplate, 9 nM Acetylcholine (3×) is pipetted into wells corresponding to the screening compounds, and into control wells. The 30 μM acetylcholine control (3×) is added into control wells, and the 3× agonist plate is transferred into a 384 well plate.
Cells are washed three times with 100 μL of buffer, leaving 30 μL of buffer in each well. Using Multimek, 30 μL of Dye Loading Buffer is added into each well and incubated at 37° C., 5% CO2 for up to one hr.
After 60 min, the cells are washed three times with 100 μL of buffer, leaving 30 μL of buffer in each well. The cell plate, screening plate, and agonist addition plates are placed on the platform in the FLIPR and the door closed. A signal test to check background fluorescence and basal fluorescence signal is performed. Laser intensity is adjusted if necessary. […]

SMILES	EC50 [nM]
O=c1c2cc(Cc3ccc(Cl)nc3)c3cnccc3c2ncn1[C@H]1CCCC[C@@H]1O [Example 1, 6-[(6-Chloropyridin-3-yl)methyl]-3-[(1S,2S)-2-hydroxycyclohexyl]pyrido[3,4-h]quinazolin-4(3H)-one]	38
O=c1c2cc(Cc3ccc(Cl)nc3)c3cnccc3c2ncn1[C@H]1CCOC[C@@H]1O [Example 2, 6-[(6-Chloropyridin-3-yl)methyl]-3-[(3R,4S)-3-hydroxytetrahydro-2H-pyran-4-yl]pyrido[3,4-h]quinazolin-4(3H)-one]	176
Cc1ccc(Cc2cc3c(=O)n([C@H]4CCCC[C@@H]4O)cnc3c3ccncc23)cn1 [Example 4, 3-[(1S,2S)-2-Hydroxycyclohexyl]-6-[(6-methylpyridin-3-yl)methyl]pyrido[3,4-h]quinazolin-4(3H)-one]	41
COc1ccc(Cc2cc3c(=O)n([C@H]4CCCC[C@@H]4O)cnc3c3ccncc23)cn1 [Example 5, 3-[(1S,2S)-2-Hydroxycyclohexyl]-6-[(6-methoxypyridin-3-yl)methyl]pyrido[3,4-h]quinazolin-4(3H)-one]	110
CSc1ccc(Cc2cc3c(=O)n([C@H]4CCCC[C@@H]4O)cnc3c3ccncc23)cn1 [Example 6, 3-[(1S,2S)-2-Hydroxycyclohexyl]-6-{[6-(methylthio)pyridine-3-yl]methyl}pyrido[3,4-h]quinazolin-4(3H)-one]	71
O=c1c2cc(Cc3ccc(-n4cccn4)nc3)c3ncccc3c2ncn1[C@H]1CCCC[C@@H]1O [Example 7, 3-[(1S,2S)-2-Hydroxycyclohexyl]-6-{[6-(1H-pyrazol-1-yl)pyridine-3-yl]methyl}pyrido[2,3-h]quinazolin-4(3H)-one]	29
Cn1cc(-c2ccc(Cc3cc4c(=O)n([C@H]5CCCC[C@@H]5O)cnc4c4ccncc34)cn2)cn1 [Example 8, 3-[(1S,2S)-2-Hydroxycyclohexyl]-6-{[6-(1-methyl-1H-pyrazol-4-yl)pyridine-3-yl]methyl}pyrido[3,4-h]quinazolin-4(3H)-one]	6
O=c1c2cc(Cc3ccc(-c4cnccn4)nc3)c3cnccc3c2ncn1[C@H]1CCCC[C@@H]1O [Example 9, 3-[(1S,2S)-2-Hydroxycyclohexyl]-6-[(6-pyrazin-2-ylpyridin-3-yl)methyl]pyrido[3,4-h]quinazolin-4(3H)-one]	64
O=Cc1ccc(Cc2cc3c(=O)n([C@H]4CCCC[C@@H]4O)cnc3c3ccncc23)cc1 [Example 10, 4-({3-[(1S,2S)-2-Hydroxycyclohexyl]-4-oxo-3,4-dihydropyrido[3,4-h]quinazolin-6-yl}methyl)benzaldehyde]	36
CC(O)c1ccc(Cc2cc3c(=O)n([C@H]4CCCC[C@@H]4O)cnc3c3ccncc23)cc1 (stereo partly drawn) [Example 11, 3-[(1S,2S)-2-Hydroxycyclohexyl]-6-[4-(1-hydroxyethyl)benzyl]pyrido[3,4-h]quinazolin-4(3H)-one]	92
CCC(O)c1ccc(Cc2cc3c(=O)n([C@H]4CCCC[C@@H]4O)cnc3c3ccncc23)cc1 (stereo partly drawn) [Example 12, 3-[(1S,2S)-2-Hydroxycyclohexyl]-6-[4-(1-hydroxypropyl)benzyl]pyrido[3,4-h]quinazolin-4(3H)-one]	130
O=c1c2cc(Cc3ccc(N4CCOCC4)cc3)c3cnccc3c2ncn1[C@H]1CCCC[C@@H]1O [Example 13, 3-[(1S,2S)-2-Hydroxycyclohexyl]-6-(4-morpholin-4-ylbenzyl)pyrido[3,4-h]quinazolin-4(3H)-one]	91
Cc1cc(Cc2cc3c(=O)n([C@H]4COCC[C@@H]4O)cnc3c3cccnc23)ccn1 [Example 14, 3-[(3S,4S)-4-Hydroxytetrahydro-2H-pyran-3-yl]-6-[(2-methylpyridin-4-yl)methyl]pyrido[2,3-h]quinazolin-4(3H)-one]	851
